Data as given in PubChem BioAssay (NCI).
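Cells were grown in 96-well plates and exposed to each compound for 48 hours at five concentrations; endpoints were interpolated linearly between bracketing concentrations, or set to the highest concentration if not reached. GI50: concentration for 50% inhibition of growth. TGI marks complete inhibition of growth.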

Key:
Assay in all cases: NCI anticancer screen, dose series, 48 h
[1] = test system: 786-0 renal
[2] = test system: A498 renal
[3] = test system: A549 NSCLC
[4] = test system: ACHN renal
[5] = test system: BT-549 breast
[6] = test system: CAKI-1 renal
[7] = test system: CCRF-CEM leukemia
[8] = test system: COLO 205 colon
[9] = test system: DU-145 prostate
[10] = test system: EKVX NSCLC
[11] = test system: HCC-2998 colon
[12] = test system: HCT-116 colon
[13] = test system: HCT-15 colon
[14] = test system: HL-60(TB) leukemia
[15] = test system: HOP-62 NSCLC
[16] = test system: HOP-92 NSCLC
[17] = test system: HS 578T breast
[18] = test system: HT29 colon
[19] = test system: IGROV1 ovarian
[20] = test system: K-562 leukemia
[21] = test system: KM12 colon
[22] = test system: LOX IMVI melanoma
[23] = test system: M14 melanoma
[24] = test system: MALME-3M melanoma
[25] = test system: MCF7 breast
[26] = test system: MDA-MB-231 breast
[27] = test system: MDA-MB-435
[28] = test system: MOLT-4 leukemia
[29] = test system: NCI-H226 lung
[30] = test system: NCI-H23 lung
[31] = test system: NCI-H460 lung
[32] = test system: NCI-H522 lung
[33] = test system: NCI/ADR-RES ovarian
[34] = test system: OVCAR-3 ovarian
[35] = test system: OVCAR-4 ovarian
[36] = test system: OVCAR-5 ovarian
[37] = test system: OVCAR-8 ovarian
[38] = test system: PC-3 prostate
[39] = test system: RPMI-8226 leukemia
[40] = test system: RXF 393 renal
[41] = test system: SF-268 CNS
[42] = test system: SF-295 CNS
[43] = test system: SF-539 CNS
[44] = test system: SK-MEL-2 melanoma
[45] = test system: SK-MEL-28 melanoma
[46] = test system: SK-MEL-5 melanoma
[47] = test system: SK-OV-3 ovarian
[48] = test system: SN12C renal
[49] = test system: SNB-19 CNS
[50] = test system: SNB-75 CNS
[51] = test system: SR leukemia
[52] = test system: SW-620 colon
[53] = test system: T-47D breast
[54] = test system: TK-10 renal
[55] = test system: U251 CNS
[56] = test system: UACC-257 melanoma
[57] = test system: UACC-62 melanoma
[58] = test system: UO-31 renal

In the case of `Cc1cc(O)cc(C)c1/C=C/c1cncc(C(N)=O)c1`, the GI50 [1] is reported as 8.6 µM, the TGI [1] is reported as > 25 µM and the GI50 [2] is reported as 1.65 µM. For the same compound, the TGI [2] was 17.4 µM, the GI50 [3] was 3.48 µM and the TGI [3] was > 25 µM. The GI50 [4] was 8.43 µM, the TGI [4] was > 25 µM and the GI50 [5] was 4.51 µM. The TGI [5] was > 25 µM, the GI50 [6] was 4.24 µM and the TGI [6] was > 25 µM. For the same compound, the GI50 [7] was 2.88 µM, the TGI [7] was > 25 µM and the GI50 [8] was 16.5 µM. For the same compound, the TGI [8] was > 25 µM, the GI50 [9] was 5.15 µM and the TGI [9] was > 25 µM. For the same compound, the GI50 [10] was 7.93 µM, the TGI [10] was > 25 µM and the GI50 [11] was 21.9 µM. The TGI [11] was > 25 µM, the GI50 [12] was 1.34 µM and the TGI [12] was > 25 µM. For the same compound, the GI50 [13] was 1.54 µM, the TGI [13] was > 25 µM and the GI50 [14] was 2.29 µM. The TGI [14] was > 12.9 µM, the GI50 [15] was 2.8 µM and the TGI [15] was > 25 µM. For the same compound, the GI50 [16] was 1.5 µM, the TGI [16] was > 14.7 µM and the GI50 [17] was 1.72 µM. For the same compound, the TGI [17] was 11.2 µM, the GI50 [18] was 6.9 µM and the TGI [18] was > 23.4 µM. The GI50 [19] was 2.18 µM, the TGI [19] was > 25 µM and the GI50 [20] was 1.06 µM. The TGI [20] was > 25 µM, the GI50 [21] was 1.25 µM and the TGI [21] was > 25 µM. The GI50 [22] was 1.94 µM, the TGI [22] was > 25 µM and the GI50 [23] was 1.2 µM. The TGI [23] was 7.75 µM, the GI50 [24] was 1.64 µM and the TGI [24] was 24.4 µM. The GI50 [25] was 1.2 µM, the TGI [25] was > 25 µM and the GI50 [26] was 2.15 µM. The TGI [26] was > 25 µM, the GI50 [27] was 0.538 µM and the TGI [27] was 1.77 µM. The GI50 [28] was 3.27 µM, the TGI [28] was > 25 µM and the GI50 [29] was > 15.6 µM. The TGI [29] was > 25 µM, the GI50 [30] was 7.24 µM and the TGI [30] was > 25 µM. The GI50 [31] was 1.84 µM, the TGI [31] was > 25 µM and the GI50 [32] was 0.779 µM. For the same compound, the TGI [32] was 3.84 µM, the GI50 [33] was 1.07 µM and the TGI [33] was > 10.9 µM. It also gave a GI50 [34] of 0.885 µM, a TGI [34] of 3.93 µM and a GI50 [35] of 14.5 µM. For the same compound, the TGI [35] was > 25 µM, the GI50 [36] was 12.1 µM and the TGI [36] was > 25 µM. The GI50 [37] was 4.15 µM, the TGI [37] was > 25 µM and the GI50 [38] was 5.09 µM. The TGI [38] was > 25 µM, the GI50 [39] was 7.91 µM and the TGI [39] was > 25 µM. For the same compound, the GI50 [40] was 2.36 µM, the TGI [40] was 13 µM and the GI50 [41] was 3.99 µM. The TGI [41] was > 25 µM, the GI50 [42] was 2.9 µM and the TGI [42] was > 25 µM. It also gave a GI50 [43] of 1.87 µM, a TGI [43] of 16.5 µM and a GI50 [44] of 1.25 µM. For the same compound, the TGI [44] was 14 µM, the GI50 [45] was 2.3 µM and the TGI [45] was > 25 µM. For the same compound, the GI50 [46] was 1.11 µM, the TGI [46] was > 25 µM and the GI50 [47] was 3.66 µM. The TGI [47] was > 17.6 µM, the GI50 [48] was 2.92 µM and the TGI [48] was > 25 µM. For the same compound, the GI50 [49] was 4.34 µM, the TGI [49] was > 25 µM and the GI50 [50] was 2.81 µM. For the same compound, the TGI [50] was > 18.2 µM, the GI50 [51] was 1.06 µM and the TGI [51] was > 25 µM. For the same compound, the GI50 [52] was 1.4 µM, the TGI [52] was > 25 µM and the GI50 [53] was 1.8 µM. The TGI [53] was > 25 µM, the GI50 [54] was 5.99 µM and the TGI [54] was > 25 µM. The GI50 [55] was 1.49 µM, the TGI [55] was > 25 µM and the GI50 [56] was 3.37 µM. For the same compound, the TGI [56] was > 25 µM, the GI50 [57] was 1.36 µM and the TGI [57] was 23.1 µM. For the same compound, the GI50 [58] was 5.58 µM and the TGI [58] was > 25 µM.
